Test results taken from patent publication US20120315281A1, “TREATMENT OF RENAL INJURY” (THE PENN STATE RESEARCH FOUNDATION, priority 2011, published 2012).

What was measured:
Type in all cases: in vivo, mouse
[1] = test system: STZ-induced diabetic mice (DBA background); assay: Renal histological changes, PAS staining, STZ-induced diabetic mice (DBA background)
From the text: Sections were stained with Periodic acid-Schiff (PAS) and all glomeruli were examined at 40×. Images were taken with 100× (oil) objective with a total magnification of 1000×. […] Adjacent tubular basement membranes stain PAS positive as well.
Kidneys from mice were fixed in 4% paraformaldehyde, embedded in paraffin, and 3-μm sections were cut. Sections were stained with Periodic acid-Schiff (PAS) stain and all glomeruli were examined at 40× (TKC) in a masked fashion. All images were obtained with an Olympus BX51 microscope and DP71 digital camera using MicroSuite Basic 2.6 imaging software. Images were taken with 100× (oil) objective with a total magnification of 1000×. Semiquantitative scores (0-4+) were assigned based on the masked reading, as previously described. Each glomerulus on a single section was graded from 0 to 4+, where 0 represents no lesion, and 1, 2, 3, and 4+ represent mesangial matrix expansion or sclerosis, involving […] of the glomerular tuft area, respectively.

[2] = test system: eNOS deficient and their wild type (WT) littermate mice; assay: Urinary albumin excretion in STZ-diabetic eNOS deficient and wild type littermate mice; details: BEC 2.3 mg/kg/day s.c. infusion 6 weeks, FIG. 14
Experimental: Experiments were conducted using multiple low doses of STZ (50 mg/kg body weight for 5 days). Arginase inhibition using BEC (2.3 mg/kg/day) or vehicle was administered by continuous subcutaneous infusion for 6 weeks via a mini-osmotic pump. Data is shown for 6 weeks after STZ-induced diabetes.
(§1) Urinary albumin excretion (UAE) was measured by ELISA using Albuwell M (Exocell, Philadelphia, Pa.) as described previously. Blood urea nitrogen (BUN) was measured using (VITROS DT60II chemistry slides; Ortho-Clinical Diagnostics, Rochester, N.Y.). Body composition was determined using LF90 Minispec Time Domain Nuclear Magnetic Resonance Spectrometer (Bruker Optics, Billerica Mass.).
eNOS deficient mice are recommended by the Animal Models of Diabetes Complications Consortium (AMDCC) as an optimal model of diabetic nephropathy. Experiments were conducted in male 6-week-old eNOS deficient and their wild type (WT) littermate mice using multiple low doses of STZ (50 mg/kg body weight for 5 days). Arginase inhibition using BEC (2.3 mg/kg/day) or vehicle was administered by continuous subcutaneous infusion for 6 weeks via a mini-osmotic pump. Renal function was monitored throughout the study.

arginase 2 mRNA = assay: Kidney arginase 2 mRNA expression by RT-PCR in Ins2^Akita mice; details: whole kidney RNA, Ins2^Akita mice at 14 weeks of age; normalized to GAPDH, relative to control; FIG. 5
Experimental: FIGS. 5A and 5B show the effect of arginase inhibition on arginase 2 mRNA expression in Ins2^Akita mice. Real-time polymerase chain reaction (RT-PCR) was performed on whole mouse kidney total RNA isolated at 14 weeks of age. […] In FIG. 5B, expression of arginase 2 mRNA was normalized to GAPDH and data were calculated as expression relative to control.
Total RNA was extracted from mouse kidneys using RNeasy Mini Kit (Qiagen, Gumbh, Hilden, Germany). Single-strand cDNA was synthesized using iScript cDNA Synthesis Kits (Bio-Rad, Hercules, Calif.) for two-step real-time polymerase chain reaction (RT-PCR). Gene-specific primers for ARG1 and ARG2 were designed using Beacon Designer Probe/Primer Design Software (Premier Biosoft International, Palo Alto, Calif.). Specificity of the PCR products was verified by melting curve analysis. Quantitative real-time PCR was performed using a Bio-Rad CFX96 system (Hercules, Calif.). Reactions were performed in duplicate, and threshold cycle numbers were averaged. Samples were calculated with normalization to GAPDH.
RT-PCR was performed on whole mouse kidney total RNA isolated at 14 weeks of age. […] In FIG. 5B, expression of arginase 2 mRNA was normalized to GAPDH and data were calculated as expression relative to control.

Ins2^Akita mice = assay: 24-hr urinary albumin excretion (UAE) in Ins2^Akita mice; details: BEC 2.3 mg/kg/day 9 weeks, at 14 weeks of age, vs vehicle, FIG. 1
Experimental: The Ins2^Akita and their wild type (WT) littermate mice were treated with the arginase-specific inhibitor S-(2-Boronoethyl)-L-cysteine (BEC) (2.3 mg/kg/day) or vehicle via osmotic minipump for 9 weeks. Urine was collected for measurement of UAE before treatment (at 5 weeks of age) and after treatment (at 14 weeks of age). In FIG. 1, the open bars are vehicle treated groups and filled bars are arginase inhibitor treated groups. Data are presented as mean±SEM. […]
(§2) BEC, a selective arginase antagonist (2.3 mg/kg/day, Cayman Chemical, Ann Arbor, Mich., USA), or vehicle (phosphate-buffered saline) was administered by continuous subcutaneous infusion for 9 weeks (in Ins2^Akita experiments) or for 6 wks (in STZ DBA mice experiments) via a mini-osmotic pump (Alzet; Durect Corporation, Palo Alto, Calif., USA) as described in CIRCULATION RESEARCH, 102(8):923-32, Apr. […] The condition of mice and body weight were monitored daily following the pump implantation.
as §1, with “Mass.). […]” for “Mass.).”

[3] = test system: Ins2^Akita and their wild type littermate mice; assay: Blood urea nitrogen (BUN) in Ins2^Akita and wild type littermate mice; details: BEC 2.3 mg/kg/day 9 weeks, 14-week of age, mean ± SEM
Experimental: (§3) Experiments were conducted in male Ins2^Akita and their wild type (WT) littermate mice (DBA background; Jackson Laboratories) starting at 5 weeks of age until 14 weeks of age and were approved by the Pennsylvania State University College of Medicine Institutional Animal Care and Use Committee (PSU IACUC). The Ins2^Akita mice were recommended by the Animal Models of Diabetes Complications Consortium as an optimal model of diabetic nephropathy, and the mice developed hyperglycemia at 3 weeks of age. […]
as §2
as §1, with “Mass.). […]” for “Mass.).”

[4] = test system: Ins2^Akita and their wild type littermate mice; assay: Characteristics of Ins2^Akita and wild type littermate mice (glucose, body weight, kidney weight, body composition) with or without arginase inhibitor; details: BEC 2.3 mg/kg/day 9 weeks, 14-week of age, mean ± SEM
Experimental: Experiments were conducted in male Ins2^Akita and their wild type (WT) littermate mice (DBA background; Jackson Laboratories) starting at 5 weeks of age until 14 weeks of age and were approved by the Pennsylvania State University College of Medicine Institutional Animal Care and Use Committee (PSU IACUC). The Ins2^Akita mice were recommended by the Animal Models of Diabetes Complications Consortium as an optimal model of diabetic nephropathy, and the mice developed hyperglycemia at 3 weeks of age. Additional experiments were conducted in male 6-week-old mice (DBA background; Jackson Laboratories), arginase-2 (Arg2) wild type […] mice on C57B1/6 background weighing 20-22 g and were approved by the PSU IACUC. After an overnight fast, animals were given multiple low doses of vehicle or STZ (Sigma, St. Louis, Mo.; 50 mg/kg body wt dissolved in lactated Ringers solution) via intraperitoneal injection.
BEC, a selective arginase antagonist (2.3 mg/kg/day, Cayman Chemical, Ann Arbor, Mich., USA), or vehicle (phosphate-buffered saline) was administered by continuous subcutaneous infusion for 9 weeks (in Ins2^Akita experiments) or for 6 wks (in STZ DBA mice experiments) via a mini-osmotic pump (Alzet; Durect Corporation, Palo Alto, Calif., USA) as described in CIRCULATION RESEARCH, 102(8):923-32, Apr. 25, 2008. The osmotic pump was incubated in phosphate buffer saline (PBS) for 60-h at 37° C. prior to implantation and was implanted dorsally between shoulders. The condition of mice and body weight were monitored daily following the pump implantation.
as §1, with “Mass.). […]” for “Mass.).”

[5] = test system: STZ-induced diabetic mice; assay: Glomerular macrophage recruitment, Mac-2 staining, STZ-induced diabetic mice; details: arginase inhibitor 6 weeks, p<0.0001 vs vehicle-treated diabetic
Experimental: as §3, §2
Immunohistochemistry for macrophages was performed in mice using rat anti-mouse Mac-2 monoclonal antibody; clone M3/38 (Cedarlane, Burlington, N.C., US) on paraffin sections. […] The number of glomerular macrophages were counted in twenty glomeruli per section (number of macrophages in glomeruli divided by the number of glomeruli) in blinded fashion under 40× magnification and averaged.

[6] = test system: Ins2^Akita and their wild type littermate mice; assay: Glomerular macrophage recruitment, Mac-2 immunohistochemistry, Ins2^Akita experiment; details: 14 weeks of age
Experimental: FIGS. 2A-2D show the effect of arginase inhibition on macrophage recruitment in Ins2^Akita mice using immunohistochemistry.
Immunohistochemistry for macrophages was performed in mice using rat anti-mouse Mac-2 monoclonal antibody; clone M3/38 (Cedarlane, Burlington, N.C., US) on paraffin sections. Sections were incubated with primary antibody (50 μg/ml) followed by a biotinylated goat IgG anti-rat (Vector Laboratories, Burlingame, Calif.) secondary antibody according to the manufacturer's protocol. Sections were viewed using an Olympus BX51 microscope and DP71 digital camera using MicroSuite Basic 2.6 imaging software. Images were taken with 100× (oil) objective with a total magnification of 1000×. The number of glomerular macrophages were counted in twenty glomeruli per section (number of macrophages in glomeruli divided by the number of glomeruli) in blinded fashion under 40× magnification and averaged.
To determine whether arginases are critical for kidney macrophage infiltration in diabetic nephropathy, the distribution and quantitation of macrophages in kidneys by immunohistochemistry (Mac-2 positive macrophages) were analyzed. […]

[7] = test system: STZ-induced diabetic mice (DBA background); assay: 24-hr urinary albumin excretion in STZ-induced diabetic mice (DBA background); details: BEC 2.3 mg/kg/day 6 weeks, vs vehicle-treated diabetic, FIG. 6
Experimental: After an overnight fast, animals were given multiple low doses of vehicle or STZ (Sigma, St. Louis, Mo.; 50 mg/kg body wt dissolved in lactated Ringers solution) via IP injection. Mice were treated with the arginase-specific inhibitor BEC (2.3 mg/kg/day) or vehicle via osmotic minipump for 6 weeks. Urine was collected for measurement of UAE after 6 weeks. Data are presented as mean±SEM.
Experiments were conducted in male Ins2^Akita and their wild type (WT) littermate mice (DBA background; Jackson Laboratories) starting at 5 weeks of age until 14 weeks of age and were approved by the Pennsylvania State University College of Medicine Institutional Animal Care and Use Committee (PSU IACUC). […]
as §2
Urinary albumin excretion (UAE) was measured by ELISA using Albuwell M (Exocell, Philadelphia, Pa.) as described previously. […]

[8] = control (wild type littermate) mice

N[C@@H](CSCCB(O)O)C(=O)O [BEC, S-(2-Boronoethyl)-L-cysteine]
PAS positive material, share of the mesangial matrix ([1]; representative PAS section from arginase inhibitor treated STZ mouse, FIG. 7C): < 25% | glomerular changes (PAS, glomerular cellularity and mesangial expansion) score ([1]; semiquantitative score 0-4+, STZ-induced diabetic mice after 6 weeks, p<0.05 vs vehicle-treated STZ): 1.6±0.08 | albuminuria (UAE) ([2]; diabetic WT mice (STZ), vs vehicle): significantly reduced | UAE ([2]; diabetic eNOS deficient mice (STZ), vs vehicle treated diabetic mice): failed to reduce | increase in arginase 2 mRNA expression (arginase 2 mRNA): ~1.5 fold | Albuminuria (urinary albumin excretion) (Ins2^Akita mice): significantly reduced | BUN ([3]; Ins2^Akita mice): 28 ± 3 | BUN [3, 8]: 28 ± 3 | Kidney weight ([4]; Ins2^Akita mice): 269 ± 10 mg | KW/BW (kidney weight to body weight ratio) [4, 8]: 8.1 ± 0.1 mg/g | Kidney weight [4, 8]: 262 ± 4 mg | glomerular macrophage recruitment (Mac-2 staining) [5]: 1.2±0.06 macrophages/glomerulus | glomerular macrophage recruitment (Mac-2 positive) ([6]; Ins2^Akita mice treated with arginase inhibitor, p<0.0001 vs vehicle-treated Ins2^Akita, FIG. 2D): 0.9±0.14 macrophages/glomerulus | glomerular macrophage recruitment (Mac-2 positive) ([6]; control mice treated with arginase inhibitor, FIG. 2C): 0.29±0.03 macrophages/glomerulus | albuminuria (24-hr UAE) [7]: significantly reduced
